The values below are quoted from earlier work in patent publication US20230201393A1, “DI[…] AND METHODS USING POLYMER COMPOSITIONS THAT FORM CHLORINE DIOXIDE GAS” (priority 2020, published 2023).

One data set deals with poliovirus 1. The following applies: 4 ppm ClO2, 5 minutes of exposure.

For the compound `[O][Cl+][O-]` [Chlorine dioxide], the miscibility in water result was “up to 60 g/L”. For the same compound, the inactivation in the data set on poliovirus 1 was not below 99.9%. Also, the survival rate with Influenza A (0.03 ppm ClO2 administered after, versus 30% when untreated) is 100%. Further, the log kill in the data set with Influenza A (0.03 ppm of ClO2 administered at the same time as the virus) was 4 log.
